Test results: patent US20160310454A1, “LIVER X RECEPTOR AGONISTS IN THE TREATMENT OF EMPHYSEMA” (priority 2013, published 2016)
“Also recorded” adds a separate entry of the source.

How the values were obtained:
[1] = test system: AKR/J mice exposed to cigarette smoke for 5 months; assay: Chronic 5 months cigarette smoke exposure model, LXR agonist in diet; assay type: in vivo, mouse; settings: for cigarette smoke induced protein levels of TNFα in the BAL / level of ABCA1 in BAL and lung tissue / total inflammatory cell counts in BAL: diet 0.015% w/w (30 mg/kg)
Method: Mice were chronically exposed to smoke in a specially designed chamber (Teague Enterprise, CA). 8 weeks old mice were smoke-exposed for 5 hours a day, 5 days a week for 10 days and 5 months. The total particulate matter (TPM) within the smoking chamber was regulated so that the mice receive a TPM of 100 mg/m^3. TPM was determined by a gravimetric analysis of filter samples taken during the exposure period. Mice (C57BL/6, AKR/J strain) were smoke exposed for 10 days and 5 months and compared to room air exposed controls.
Eight week-old AKR/J mice were utilized in the study and exposed to three different conditions: room air (n=8), cigarette smoke (n=8), cigarette smoke with additional treatment with LXR agonist (n=8). The LXR agonist was delivered in the diet and the concentration calculated based on the average mouse weight (30 g) and food consumption (6 g/day). Experimental food was prepared with a 0.015% LXR agonist (T0901317-Cayman Chemicals) in food (w/w) concentration corresponding to 30 mg/kg body weight. Both the control group and the custom drug diet were prepared by Research diets, Inc., New Brunswick, N.J. (Control diet (C11000)—Purina Rodent Chow 5001, Custom Diet (C13861)—Purina Rodent Chow 5001 with 0.015% LXR agonist (T0901317-Cayman Chemicals).
To determine the pulmonary compliance of the lung, a closed chest model was utilized (Foronjy et al., 2005). Respiratory mechanics were measured using a flexiVent (SCIREQ) system (Foronjy et al., 2005). Pentobarbital was used for sedation and succinylcholine for paralysis. The mice then underwent neck dissection and tracheostomy followed by a full assessment of pulmonary mechanics in triplicate utilizing the flexiVent system (Foronjy et al., 2005). After the airway measurements were performed the animals were sacrificed by CO2 inhalation and further utilized for tissue, BAL and lung analysis.
The BAL fluid was collected by perfusing the lungs with 2 ml of phosphate buffered saline (PBS). The samples were then centrifuged to pellet down the cells and re-suspended in 300 μl of PBS. To obtain the total cell count, cells were counted using a hematocytometer for which, 10 μl of the sample was utilized. To obtain the differential cell count, the slides were prepared using a cytopsin. 150 μl of sample was taken to prepare slides. These slides were stained using Hematoxylin and Eosin (H&E) and a number of regular and foamy like macrophages and lymphocytes counted under the microscope. A foamy like phenotype (Hirama et al., 2007) was identified by examining the sequential increase in macrophage size. Lipid staining was not performed.
Histological evaluation of the inflammation was performed on the left lungs which were fixed using 10% formalin. Fixed tissue was stained with H&E and Trichrome and mean linear intercept (MLI) determined as described previously (Foronjy et al., 2008; Foronjy et al., 2005; Foronjy et al., 2001; Foronjy et al., 2010; Foronjy et al., 2008a; Foronjy et al., 2006; Foronjy et al., 2003; Geraghty et al., 2013).
Total RNA was extracted from specimens of lung tissue 0.3 cm^3 in size with the use of the RNeasy kit (Qiagen, Germantown, Md.) (Goldklang et al., 2012). The RNA was then further processed to obtain cDNA, which was used for Real Time (RT) PCR analysis. TaqMan gene expression assays (Applied Biosystems, Carlsbad, Calif.) were performed to assess gene-transcript levels with the use of an ABI Prism 7900HT Sequence Detection System (Applera, Foster City, Calif.) (Goldklang et al., 2012). The following primers were used to check the respective gene expression: ABCA1 (Hs01059118_m1), ABCG1 (Hs00245154_m1), MMP-9 (Mm00442991_m1), IL-1β (Mm00434227_g1), TNF-α (Mm00443260_g1) and GAPDH (4352932E) from TaqMan Gene Expression Assays, Applied Biosystems, CA. β-actin was used as a control since it is a housekeeping gene.

[2] = In vivo bioavailability of LXR agonist in lung and serum (LC/MS/MS); set-up: species or system mouse
Method: FIG. 23. In vivo bioavailability of LXR agonist (T0901317) in the lung and serum after intraperitoneal (IP) and custom made diet administration. (A.) T0901317 LC/MS/MS Chromatogram showing no difference among standard and samples in the peak shape and retension time. (B.) Table representing levels of the administered drug in serum and lungs of AKR/J mice by IP (2 and 24 hours post drug administration) and in custom made diet (Research Diets Inc, 0.015% w/w). The result was normalized by using serum volume and lung tissue weight. No T0901317 was detected in control serum and lung.

[3] = 5 months smoke, mass spectrometry
[4] = 5 months smoke, listed as LXR agonist
[5] = diet 0.015% w/w, 5 months smoke

O=S(=O)(c1ccccc1)N(CC(F)(F)F)c1ccc(C(O)(C(F)(F)F)C(F)(F)F)cc1 [T0901317, N-(2,2,2-trifluoroethyl)-N-[4-[2,2,2-trifluoro-1-hydroxy-1-(trifluoromethyl)ethyl]phenyl]-benzenesulfonamide]
collagen airway and vessels deposition ([1]; 5 months smoke, Masson Trichrome staining): decrease | cigarette smoke induced increase in C14 and C16 ceramides in BAL [1, 3]: reduced | total level of ceramides in the BAL [1, 3]: reduced | smoke induced increase in IFNγ and MCP-1 in the lung ([1]; diet 0.015% w/w): inhibited | cigarette smoke induced protein levels of TNFα in the BAL ([1]; 5 months smoke): decreased | level of ABCA1 in BAL and lung tissue ([1]; 5 months smoke): induced | total inflammatory cell counts in BAL ([1]; 5 months smoke): decrease | cigarette smoke induced protein levels of TNFα in the BAL [1, 4]: abrogated | level of ABCA1 in BAL and lung tissue [1, 4]: successfully increased; also recorded: restored | total inflammatory cell counts in BAL [1, 4]: significantly decreased | lung structure / emphysema development by mean linear intercept [1, 5]: preserved the lung structure and blocked emphysema development | mRNA expression of MMP-9 and TNFα in the lungs [1, 5]: No significant changes | mRNA levels of MMP-9 in the BAL cells [1, 5]: not significantly altered | alveolar macrophage population exhibiting a foam cell-like phenotype ([1]; diet 0.015% w/w, 5 months smoke, differential BAL cell counts): significantly reduced | lung elastance ([1]; diet 0.015% w/w, 5 months smoke, flexiVent): increase | lung compliance ([1]; diet 0.015% w/w, 5 months smoke, flexiVent, vs untreated smoke exposed mice): decrease | smoke induced MMP-9 activity in the BAL ([1]; diet 0.015% w/w, gelatin zymography): attenuated | drug detected in the lungs ([2]; after IP administration, acute 10 day model): detected | drug detected in the lungs ([2]; chronic 5 months model (diet 0.015% w/w), text prints after IP administration): detected
